Patent EP3974434B1, “MACROLIDE DERIVATIVES, PREPARATION METHOD AND APPLICATION THEREOF” (Zhejiang Hisun Pharmaceutical Co., Ltd., priority 2019, dated 2020)

Legend:
[1] = molecular target: T1, TRKA (Homo sapiens, UniProt P04629); assay: HTRF KinEASE-TK kinase activity inhibition assay, TRKA; assay type: biochemical; details: ATP 100 µM
T1 construct: purchased Carna bioscience 08-186
Source text: (§1) The following method was used to determine the inhibition degrees of the compounds of the present invention on the activity of recombinant human NTRK family kinase in vitro. In this method, HTRF®KinEASE-TK tyrosine kinase kit (article number: 62TK0PEB) of Cisbio company was used, and the principle of the kit was based on time-resolved fluorescence resonance energy transfer (TF-FRET), and the inhibition of the compounds on the activity of the NTRK kinase was reflected by determining a phosphorylation degree of a biotinylated polypeptide substrate mediated by NTRK kinase. For detailed experimental operation, please refer to the kit instruction. Recombinant human wild-type NTRK proteins were purchased from Carna bioscience (the article numbers were TRKA #08-186, TRKB #08-187 and TRKC #08-197 respectively), and recombinant human mutant NTRK proteins were purchased from SignalChem (the article numbers were TRKA G595R #N16-12BG-10, TRKA G667C # N16-12CG-10, and TRKC G623R # N18-12CH-10 respectively).
(§2) The experimental methods were operated according to the steps in the kit instruction, and were briefly described as follows: a test compound was first dissolved in DMSO to prepare a storage solution, and then diluted in gradient with a buffer provided in the kit. A final concentration of the test compound in the reaction system ranged from 1,000 nM to 0.004 nM. An ATP Km value concentration of each NTRK protein was determined by using an ATP solution diluted in gradient (Sangon Biotech (Shanghai) Co., Ltd., A600311). According to the Km value obtained, the ATP concentrations in the reaction system were set as 100 µM for TRKA, 10 µM for TRKB, 50 µM for TRKC, 7 µM for TRKA(G595R), 1 µM for TRKA(G667C) and 100 µM for TRKC(G623R). The reaction was carried out in a 384-well microplate. Firstly, the compound and a certain amount of corresponding NTRK protein were added to the wells and incubated for 5 minutes to 10 minutes at room temperature. Then, the ATP solution and the biotinylated polypeptide substrate solution were added to the reaction solution and incubated with shaking at room temperature for 60 minutes. Then, an anti-phosphorylated tyrosine antibody coupled with a europium compound and streptavidin coupled with modified allophycocyanin XL665 were added to the reaction, and continuously incubated with shaking at room temperature for 1 hour. After incubation, fluorescence intensity values of each well at an excitation wavelength of 304 nm, and emission wavelengths of 620 nm and 665 nM were determined in a TF-FRET mode on a microplate reader. Compared with the fluorescence intensity ratio of a control group (0.1% DMSO), the percentage inhibition rates of the compound at each concentration were calculated, and the IC50 value of the compound was obtained by performing nonlinear regression analysis for logarithmic value of the compound concentration - inhibition rate by GraphPad Prism 5 software, which can be seen in Table 1. Table 1 IC50 data of the compounds of the present invention on TRK enzyme activity inhibition

[2] = molecular target: T2, TRKB (Homo sapiens, UniProt Q16620); assay: HTRF KinEASE-TK kinase activity inhibition assay, TRKB; assay type: biochemical; details: ATP 10 µM
T2 construct: purchased Carna bioscience 08-187
T2 sequence (Q16620 32-822): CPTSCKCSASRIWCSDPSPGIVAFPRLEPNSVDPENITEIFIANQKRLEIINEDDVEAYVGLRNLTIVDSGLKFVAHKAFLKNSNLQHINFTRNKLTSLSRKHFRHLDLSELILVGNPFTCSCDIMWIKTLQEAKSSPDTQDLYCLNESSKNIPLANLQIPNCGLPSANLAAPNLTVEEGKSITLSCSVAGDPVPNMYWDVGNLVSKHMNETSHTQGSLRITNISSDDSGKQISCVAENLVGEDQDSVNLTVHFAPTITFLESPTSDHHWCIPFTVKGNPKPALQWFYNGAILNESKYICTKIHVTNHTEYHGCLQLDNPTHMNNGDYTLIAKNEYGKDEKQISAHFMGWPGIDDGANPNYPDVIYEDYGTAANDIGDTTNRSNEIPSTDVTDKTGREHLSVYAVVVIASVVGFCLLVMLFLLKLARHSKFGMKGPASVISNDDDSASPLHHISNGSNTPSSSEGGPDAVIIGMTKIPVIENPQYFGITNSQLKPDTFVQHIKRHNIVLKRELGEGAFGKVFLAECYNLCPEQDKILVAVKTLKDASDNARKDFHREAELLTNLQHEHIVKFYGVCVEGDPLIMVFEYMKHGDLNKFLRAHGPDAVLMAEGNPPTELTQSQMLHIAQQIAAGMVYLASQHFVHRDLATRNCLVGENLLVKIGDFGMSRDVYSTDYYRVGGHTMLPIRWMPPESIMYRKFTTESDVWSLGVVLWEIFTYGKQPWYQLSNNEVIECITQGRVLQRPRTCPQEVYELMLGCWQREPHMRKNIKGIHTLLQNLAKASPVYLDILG
Source text: as §1, §2

[3] = molecular target: T3, TRKC (Homo sapiens, UniProt Q16288); assay: HTRF KinEASE-TK kinase activity inhibition assay, TRKC; assay type: biochemical; details: ATP 50 µM
T3 construct: purchased Carna bioscience 08-197
T3 sequence (Q16288 32-839): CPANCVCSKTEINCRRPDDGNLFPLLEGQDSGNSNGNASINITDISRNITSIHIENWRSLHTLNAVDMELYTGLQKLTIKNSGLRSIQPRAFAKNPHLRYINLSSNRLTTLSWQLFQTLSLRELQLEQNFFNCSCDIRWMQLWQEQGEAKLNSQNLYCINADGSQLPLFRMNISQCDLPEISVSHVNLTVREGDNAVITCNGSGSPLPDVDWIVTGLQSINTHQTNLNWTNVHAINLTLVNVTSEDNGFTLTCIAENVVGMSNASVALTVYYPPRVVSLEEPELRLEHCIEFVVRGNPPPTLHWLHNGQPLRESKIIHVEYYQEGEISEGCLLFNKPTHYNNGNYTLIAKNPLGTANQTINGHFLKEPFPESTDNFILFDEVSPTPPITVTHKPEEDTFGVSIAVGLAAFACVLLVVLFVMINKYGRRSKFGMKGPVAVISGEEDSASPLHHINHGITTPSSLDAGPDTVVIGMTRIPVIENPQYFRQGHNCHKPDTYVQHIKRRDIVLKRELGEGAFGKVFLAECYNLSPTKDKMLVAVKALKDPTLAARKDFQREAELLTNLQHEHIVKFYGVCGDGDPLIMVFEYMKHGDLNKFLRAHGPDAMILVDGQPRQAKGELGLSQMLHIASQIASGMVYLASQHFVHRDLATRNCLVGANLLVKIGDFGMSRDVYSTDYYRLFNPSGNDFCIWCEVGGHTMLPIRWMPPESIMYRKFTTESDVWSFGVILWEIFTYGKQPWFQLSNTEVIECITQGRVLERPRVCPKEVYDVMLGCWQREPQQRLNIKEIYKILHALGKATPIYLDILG
Source text: as §1, §2

[4] = molecular target: T4, TRKA(G667C) (Homo sapiens, UniProt P04629, G667C); assay: HTRF KinEASE-TK kinase activity inhibition assay, TRKA(G667C); assay type: biochemical; details: ATP 1 µM
T4 construct: purchased SignalChem N16-12CG-10
T4 sequence (P04629 33-796 G667C): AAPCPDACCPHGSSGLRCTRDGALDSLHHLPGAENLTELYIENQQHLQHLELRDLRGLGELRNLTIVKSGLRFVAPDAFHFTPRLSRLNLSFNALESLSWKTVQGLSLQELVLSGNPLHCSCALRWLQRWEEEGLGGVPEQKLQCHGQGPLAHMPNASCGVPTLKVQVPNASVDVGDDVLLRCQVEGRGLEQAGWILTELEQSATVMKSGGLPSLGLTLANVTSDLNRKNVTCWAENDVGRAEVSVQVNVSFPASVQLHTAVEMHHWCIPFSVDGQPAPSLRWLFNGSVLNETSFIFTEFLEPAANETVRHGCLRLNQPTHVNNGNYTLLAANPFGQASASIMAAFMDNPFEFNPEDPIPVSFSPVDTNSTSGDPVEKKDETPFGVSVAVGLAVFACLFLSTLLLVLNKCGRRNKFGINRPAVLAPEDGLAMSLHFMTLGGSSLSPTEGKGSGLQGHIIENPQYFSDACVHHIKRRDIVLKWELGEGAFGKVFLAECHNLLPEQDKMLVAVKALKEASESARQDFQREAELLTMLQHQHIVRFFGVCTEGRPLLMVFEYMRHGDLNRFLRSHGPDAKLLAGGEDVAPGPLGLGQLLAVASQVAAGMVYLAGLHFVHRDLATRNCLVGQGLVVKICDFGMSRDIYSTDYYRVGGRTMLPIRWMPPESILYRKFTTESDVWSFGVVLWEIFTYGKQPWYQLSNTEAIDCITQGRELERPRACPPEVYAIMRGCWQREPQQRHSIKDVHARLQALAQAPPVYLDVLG
Source text: as §1, §2

[5] = system: BAF3 LMNA-TRKA^WT; assay: Cell proliferation assay (CellTiter-Glo), BAF3 LMNA-TRKA WT; assay type: cell-based; details: Mus musculus, 72 hours
Experimental: (§3) The following method was used to determine the effects of the compounds of the present invention on cell proliferation. BAF3 cells were purchased from National Infrastructure of Cell Line Resource (Beijing Headquarter). For TRKA, BAF3 cells were used to construct […] stable cell lines of BAF3 LMNA-TRKA^WT and BAF3 LMNA-TRKA^G667C.The above […] cell lines were used to determine the inhibition of the compounds on cell activities. The cells were cultured in an RPMI 1640 medium containing 10% fetal bovine serum, 100 U penicillin and 100 µg/mL streptomycin. The cells were cultured in a 5% CO2 incubator at 37°C. The activities of the cells were determined by CellTiter-Glo® Luminescent Cell Viability Assay kit (Promega, article number: G7573).
(§4) The experimental methods were operated according to the steps in the kit instruction, and were briefly described as follows: a test compound was first dissolved in DMSO to prepare a storage solution, and then diluted in gradient with the corresponding cell culture medium to prepare a test sample. A final concentration of the compound ranged from 1 µM to 0.15 nM. […] After the culture, 50 µL of CellTiter-Glo detection solution was added to each well, shaken for 5 minutes, and then stood for 10 minutes, and the luminescence values of each well were read on the microplate reader using a Luminance mode. […]

[6] = system: BAF3 LMNA-TRKA^G667C; assay: Cell proliferation assay (CellTiter-Glo), BAF3 LMNA-TRKA G667C; assay type: cell-based; details: Mus musculus, 72 hours
Experimental: as §3, §4

[7] = system: BAF3 LMNA-TRKA^G595R; assay: Cell proliferation assay (CellTiter-Glo), BAF3 LMNA-TRKA G595R; assay type: cell-based; details: Mus musculus, 72 hours
Experimental: The following method was used to determine the effects of the compounds of the present invention on cell proliferation. […] For TRKA, BAF3 LMNA-TRKA^G595R stably transformed cell line was constructed by BAF3 cells. The above cell line was used to determine the inhibition of the compounds on cell activity. […] The cells were cultured in a 5% CO2 incubator at 37°C. The activity of the cells were determined by CellTiter-Glo® Luminescent Cell Viability Assay kit (Promega, article number: G7573).
The experimental methods were operated according to the steps in the kit instruction, and were briefly described as follows: a test compound was first dissolved in DMSO to prepare a storage solution, and then diluted in gradient with the corresponding cell culture medium to prepare a test sample. […] Cells in logarithmic growth phase were inoculated into a 96-well cell culture plate at a suitable density, and the cells were cultured in a 5% CO2 incubator at 37°C overnight. After adding the sample of the test compound, the cells were continuously cultured for 72 hours. After the culture, 50 µL of CellTiter-Glo detection solution was added to each well, shaken for 5 minutes, and then stood for 10 minutes, and the luminescence values of each well were read on the microplate reader using a Luminance mode.

[8] = molecular target: T5, ALK (Homo sapiens, UniProt Q9UM73); assay: HTRF KinEASE-TK kinase activity inhibition assay, ALK; assay type: biochemical; details: ATP 1 µM
T5 construct: purchased SignalChem A19-11G-10
T5 sequence (Q9UM73 19-1620): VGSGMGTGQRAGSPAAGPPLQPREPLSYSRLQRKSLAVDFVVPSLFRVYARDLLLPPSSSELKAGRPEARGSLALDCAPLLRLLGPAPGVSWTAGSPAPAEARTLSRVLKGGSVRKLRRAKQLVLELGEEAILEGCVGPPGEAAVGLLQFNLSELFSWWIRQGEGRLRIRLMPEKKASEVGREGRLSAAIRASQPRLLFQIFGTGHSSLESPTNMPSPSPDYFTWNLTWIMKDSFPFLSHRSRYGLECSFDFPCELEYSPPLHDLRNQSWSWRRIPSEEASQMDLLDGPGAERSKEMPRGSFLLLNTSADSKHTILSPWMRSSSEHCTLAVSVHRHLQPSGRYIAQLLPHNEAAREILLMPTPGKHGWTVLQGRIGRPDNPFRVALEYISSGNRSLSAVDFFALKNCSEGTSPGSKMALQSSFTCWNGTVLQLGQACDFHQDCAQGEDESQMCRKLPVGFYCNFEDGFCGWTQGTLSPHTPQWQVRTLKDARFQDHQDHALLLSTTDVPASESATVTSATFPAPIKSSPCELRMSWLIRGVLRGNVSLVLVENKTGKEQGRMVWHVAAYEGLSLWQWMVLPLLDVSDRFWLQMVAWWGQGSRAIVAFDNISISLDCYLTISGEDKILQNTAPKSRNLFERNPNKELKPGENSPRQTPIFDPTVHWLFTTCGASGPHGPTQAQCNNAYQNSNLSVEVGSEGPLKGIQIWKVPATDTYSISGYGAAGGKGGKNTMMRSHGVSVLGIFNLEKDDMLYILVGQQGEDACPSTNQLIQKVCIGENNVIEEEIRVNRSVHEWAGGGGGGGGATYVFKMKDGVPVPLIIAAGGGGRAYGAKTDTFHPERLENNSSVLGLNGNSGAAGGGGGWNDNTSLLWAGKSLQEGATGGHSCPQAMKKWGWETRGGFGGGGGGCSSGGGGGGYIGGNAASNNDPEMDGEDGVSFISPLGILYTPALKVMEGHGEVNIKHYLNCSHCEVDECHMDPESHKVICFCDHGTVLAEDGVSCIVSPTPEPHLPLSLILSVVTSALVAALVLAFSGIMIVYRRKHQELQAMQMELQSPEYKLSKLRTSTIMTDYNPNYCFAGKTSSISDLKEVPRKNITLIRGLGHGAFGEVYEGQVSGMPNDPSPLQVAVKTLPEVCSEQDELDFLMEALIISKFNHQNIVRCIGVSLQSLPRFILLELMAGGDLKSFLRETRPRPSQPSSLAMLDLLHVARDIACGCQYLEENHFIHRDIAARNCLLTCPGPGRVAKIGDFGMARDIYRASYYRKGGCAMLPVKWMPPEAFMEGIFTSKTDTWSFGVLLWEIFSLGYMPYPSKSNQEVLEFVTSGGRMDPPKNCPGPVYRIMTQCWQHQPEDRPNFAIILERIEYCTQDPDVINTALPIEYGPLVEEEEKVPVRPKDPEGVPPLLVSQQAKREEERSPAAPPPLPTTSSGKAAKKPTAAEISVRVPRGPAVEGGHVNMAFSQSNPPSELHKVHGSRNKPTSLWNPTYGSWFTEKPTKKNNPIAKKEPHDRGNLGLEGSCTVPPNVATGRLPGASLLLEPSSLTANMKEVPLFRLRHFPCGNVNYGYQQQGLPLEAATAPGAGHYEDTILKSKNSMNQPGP
Source text: The following method was used to determine the inhibition degrees of the compounds of the present invention on the activity of recombinant human ALK kinase in vitro. In this method, HTRF®KinEASE-TK tyrosine kinase kit (article No. 62TK0PEB) of Cisbio company was used, the principle of the kit was based on time-resolved fluorescence resonance energy transfer (TF-FRET), and the inhibition of the compounds on the activity of the ALK kinase was reflected by determining a phosphorylation degree of a biotinylated polypeptide substrate mediated by ALK kinase. […] The recombinant human ALK was purchased from SignalChem (article number was ALK#A19-11G-10).
The experimental flow was briefly described as follows: a test compound was first dissolved in DMSO to prepare a storage solution, and then diluted in gradient with a buffer provided in the kit. A final concentration of the test compound in the reaction system ranged from 1000 nM to 0.004 nM. An ATP Km value concentration of each ALK protein was determined by using an ATP solution diluted in gradient (Sangon Biotech (Shanghai) Co., Ltd., A600311). […] After incubation, fluorescence intensity values of each well at an excitation wavelength of 304 nm, and emission wavelengths of 620 nm and 665 nM were determined in a TF-FRET mode on a microplate reader, and the fluorescence intensity ratio 665/620 of each well was calculated. […]

[9] = molecular target: T6, TRKC(G623R) (Homo sapiens, UniProt Q16288, G623R); assay: HTRF KinEASE-TK kinase activity inhibition assay, TRKC(G623R); assay type: biochemical; details: ATP 100 µM
T6 construct: purchased SignalChem N18-12CH-10
T6 sequence (Q16288 32-839 G623R): as the sequence (Q16288 32-839) above, with G592R counted along it
Source text: as §1
as §2, with “Then, an anti-phosphorylated tyrosine antibody coupled with a europium compound and streptavidin coupled with modified allophycocyanin XL665 were added to the reaction, and continuously incubated with shaking at room temperature for 1 hour.” left out, “Table 1 IC50 data of the compounds of the present invention on TRK enzyme activity inhibition” left out

T1 sequence (P04629 33-796): as the sequence (P04629 33-796 G667C) above, with C635G counted along it

Row | IC50 [1] [nM] | IC50 [2] [nM] | IC50 [3] [nM] | IC50 [4] [nM] | IC50 [5] [nM] | IC50 [6] [nM] | IC50 [7] [nM] | IC50 [8] [nM] | IC50 [9] [nM] | Structure (SMILES)
1 | 0.82 | 1.17 | 0.7 | 9.5 | 1.2 | 46.7 | 2.2 | 1.93 | – | C[C@H]1Nc2ccn3nc(N)c(c3n2)C(=O)NC[C@@]2(C)Cc3cc(F)cc1c3O2 [Example 25, (3R,11R)-16-amino-6-fluoro-3,11-dimethyl-10-oxa-2,13,17,18,21-pentaazapentacyclo[13.5.2.1^8,11.0^4,9. 0^18,22]tricosa-1(21),4,6,8,15(22),16,19-heptaen-14-one]
2 | 0.56 | 0.45 | 0.22 | – | 1.5 | 77.6 | 3.1 | 2.02 | 13.5 | C[C@H]1Nc2ccn3ncc(c3n2)C(=O)NC[C@@]2(C)Cc3cc(F)cc1c3O2 [Example 8, (3R,11R)-6-fluoro-3,11-dimethyl-10-oxa-2,13,17,1 8,21-pentaazapentacyclo[13.5.2.1^8,11.0^4,9.0^18,22]tric osa-1(21),4,6,8,15(22),16,19-heptaen-14-one]
